# Laboratory results as given in publication PMC5419589 (Bioorganic & medicinal chemistry, 2016).
# Experiments:
# [1] = severe side effects of treatment; cited from earlier work
# [2] = system: T. brucei brucei strain BF427; assay: T. brucei growth inhibition assay; format: cell-based, Trypanosoma brucei brucei; conditions: for activity on T. brucei cells (in words): T. brucei EC50 assay
# [3] = system: T. brucei brucei (strain TREU667); assay: Chronic; format: in vivo, mouse; conditions: for relapse with parasites in the blood / suppression of parasitemia during treatment phase: TREU667, 50 mg/kg twice a day oral day 21 to 34; for number of mice free of parasitemia/number of mice in the group: same dosing
# [4] = Mouse oral pharmacokinetics; format: in vivo; conditions: mice
# [5] = Brain:plasma compound concentration measurements in mice; format: in vivo; conditions: following intraperitoneal injection in mice
structure (smiles),measurement,setting,value
Nc1nc(N)nc(Nc2ccc([As]3SCC(CO)S3)cc2)n1 (stereo not drawn) [Melarsoprol],fatalities in patients,[1],3–10%
"Cl.NCCN(C(=O)c1ccc(F)cc1C(F)(F)F)c1ccc(OCc2ccc(Cl)cc2)cc1 [Compound 65, N-(2-Aminoethyl)-N-{4-[(4-chlorophenyl)methoxy]phenyl}-4-fluoro-2-(trifluoromethyl)benzamide hydrochloride]",activity on T. brucei cells (in words),[2],single digit nanomolar EC50 values
same,relapse with parasites in the blood,[3],all mice relapsed
same,suppression of parasitemia during treatment phase,[3],partial suppression
same,number of mice free of parasitemia/number of mice in the group,"[3]; day 35 post-infection, day 1 post-treatment",4/4
same,number of mice free of parasitemia/number of mice in the group,"[3]; day 36 post-infection, day 2 post-treatment",4/4
same,number of mice free of parasitemia/number of mice in the group,"[3]; day 37 post-infection, day 3 post-treatment",2/4
same,number of mice free of parasitemia/number of mice in the group,"[3]; day 38 post-infection, day 4 post-treatment",1/4
same,number of mice free of parasitemia/number of mice in the group,"[3]; day 39 post-infection, day 5 post-treatment",1/4
same,number of mice free of parasitemia/number of mice in the group,"[3]; day 40 post-infection, day 6 post-treatment",1/4
same,number of mice free of parasitemia/number of mice in the group,"[3]; day 41–42 post-infection, day 7–8 post-treatment",1/4
same,number of mice free of parasitemia/number of mice in the group,"[3]; day 43–45 post-infection, day 9–11 post-treatment",1/4
same,number of mice free of parasitemia/number of mice in the group,"[3]; day 46–49 post-infection, day 12–15 post-treatment",0/4
CC(C)c1ccc(COc2ccc(N(CCN)C(=O)c3cccnc3C(F)(F)F)cc2)cc1.Cl [Compound 73],oral bioavailability (in words),[4],orally bioavailable
same,relapse with parasites in the blood,[3],all mice relapsed
same,suppression of parasitemia during treatment phase,[3],complete suppression
"CC(=O)NCCN(C(=O)c1ccc(Cl)cc1Cl)c1ccc(Cl)cc1 [Compound 46, N-{2-[N-(4-Chlorophenyl)-1-(2,4-dichlorophenyl)formamido]ethyl}acetamide]",activity on T. brucei cells (in words),[2],eliminated anti-T. brucei activity
"CN(C)CCN(C(=O)c1ccc(Cl)cc1Cl)c1ccc(Cl)cc1 [Compound 47, 2,4-Dichloro-N-(4-chlorophenyl)-N-[2-(dimethylamino)ethyl] benzamide]",activity on T. brucei cells (in words),[2],eliminated anti-T. brucei activity
"Cl.NCCN(C(=O)c1ccccc1Cl)c1ccc(Cl)cc1 [Compound 23, N-(2-Aminoethyl)-2-chloro-N-(4-chlorophenyl)benzamide hydrochloride]",fold more active than 4-chlorobenzoyl derivative 21,[2]; vs 21,~8 fold
same,fold more active than 3-chloro (22),[2]; vs 22,3 fold
"Cl.NCCN(C(=O)c1cccnc1C(F)(F)F)c1ccc(OCc2ccc(Cl)cc2)cc1 [Compound 68, N-(2-Aminoethyl)-N-{4-[(4-chlorophenyl)methoxy]phenyl}-2-(trifluoromethyl)pyridine-3-carboxamide hydrochloride]",fold more active than 2-chloronicotinoyl (67),[2]; vs 67,10 fold
Cl.NCCN(C(=O)c1ccc(Cl)cc1Cl)c1ccc(F)cc1 [Compound 1],permeability into brain tissue (in words),[5],excellent permeability into brain tissue
"Cc1ccccc1C(=O)N(CCN)c1ccc(Cl)cc1.Cl [Compound 24, N-(2-Aminoethyl)-N-(4-chlorophenyl)-2-methylbenzamide hydrochloride]",fold more active than 4-methyl derivative 25,[2]; vs 25,14 fold
"Cl.NCCN(C(=O)c1ccc(Cl)cc1Cl)c1ccc(N)cc1 [Compound 10, N-(2-Aminoethyl)-N-(4-aminophenyl)-2,4-dichlorobenzamide]",activity on T. brucei cells (in words),[2],eliminated activity
